# According to publication PMC9316523, “Design, Synthesis and Molecular Docking of Novel Acetophenone-1,2,3-Triazoles Containing Compounds as Potent Enoyl-Acyl Carrier Protein Reductase (InhA) Inhibitors” (Pharmaceuticals, 2022):
# Where two headings read alike, the source gives them in different places.
# Key:
# M. tuberculosis InhA = molecular target: T1, M. tuberculosis InhA (Mycobacterium tuberculosis, UniProt P9WGR1); assay: InhA enzymatic inhibition assay (NADH oxidation at 340 nm); type: biochemical
# T1 construct: made in house; host or cells: E. coli
# T1 sequence (P9WGR1 whole entry, looked up): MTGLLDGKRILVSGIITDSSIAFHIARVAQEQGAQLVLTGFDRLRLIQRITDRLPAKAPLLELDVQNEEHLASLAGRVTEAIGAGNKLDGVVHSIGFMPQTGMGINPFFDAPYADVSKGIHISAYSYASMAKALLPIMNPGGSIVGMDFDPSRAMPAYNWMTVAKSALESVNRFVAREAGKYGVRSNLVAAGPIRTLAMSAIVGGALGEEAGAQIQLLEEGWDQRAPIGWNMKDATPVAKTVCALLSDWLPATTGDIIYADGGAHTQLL
# [1] = system: Mycobacterium tuberculosis; details: cited from earlier work
# [2] = molecular target: enoyl-acyl carrier protein reductase InhA enzyme; set-up: method as in PMID 32987135; details: cited from earlier work
# [3] = 70 nM InhA, 2 h pre-incubation, 25 °C, pH 6.8, read-out: InhA inhibition IC50
Compound,IC50 (M. tuberculosis InhA; [3]) [nM],inhibition at 10 µM (M. tuberculosis InhA) [%],melting point [°C],IC50 (M. tuberculosis InhA) [nM],MIC [1] [µg/mL],IC50 [2] [nM]
"CC(=O)c1ccc(OCc2cn(CC(=O)NCc3ccc(C)cc3)nn2)cc1 [Compound 13, 2-(4-((4-Acetylphenoxy)methyl)-1H-1,2,3-triazol-1-Yl)-N-(4-methylbenzyl)acetamide]",84,100,180 to 182,,,
"CC(=O)c1ccc(OCc2cn(CC(=O)Nc3ccc(Cl)c(Cl)c3)nn2)cc1 [Compound 11, 2-(4-((4-Acetylphenoxy)methyl)-1H-1,2,3-triazol-1-Yl)-N-(3,4-dichlorophenyl)acetamide]",43,100,205 to 206,,,
"COc1ccc(CNC(=O)Cn2cc(COc3ccc(C(C)=O)cc3)nn2)cc1 [Compound 14, 2-(4-((4-Acetylphenoxy)methyl)-1H-1,2,3-triazol-1-Yl)-N-(4-methoxybenzyl)acetamide]",,100,125 to 126,2,,
COc1ccccc1NC(=O)Cn1cc(COc2ccc3c(c2)CCC3)nn1 [Lead structure C],,,,,6.25,
"CC(=O)c1ccc(OCc2cn(CC(=O)Nc3ccccc3F)nn2)cc1 [Compound 9, 2-(4-((4-Acetylphenoxy)methyl)-1H-1,2,3-triazol-1-Yl)-N-(2-fluorophenyl)acetamide]",,100,179 to 180,5,,
"CO[C@H]1/C=C/O[C@@]2(C)Oc3c(C)c(O)c4c(O)c(c(/C=N/N5CCN(C)CC5)c(O)c4c3C2=O)NC(=O)/C(C)=C\C=C\[C@H](C)[C@H](O)[C@@H](C)[C@@H](O)[C@@H](C)[C@H](OC(C)=O)[C@@H]1C [Rifampicin, reference compound]",8500,58.8,,,,
O=C(Cn1cc(-c2ccccc2)nn1)Nc1ccccc1 [Lead structure D],,,,,0.08,
"CC(=O)c1ccc(OCc2cn(CC(=O)Nc3ccc([N+](=O)[O-])cc3)nn2)cc1 [Compound 10, 2-(4-((4-Acetylphenoxy)methyl)-1H-1,2,3-triazol-1-Yl)-N-(4-nitrophenyl)acetamide]",,100,185 to 186,8,,
Clc1ccc(OCc2cn(Cc3ccc(Br)cc3)nn2)cc1 [Lead structure A],,,,,5.8,
CC[C@H](CO)C(=O)c1ccc(OCc2ccccc2)cc1O [Lead structure B],,,,,,380
"CC(=O)c1ccc(OCc2cn(CC(=O)NCc3ccc(F)cc3)nn2)cc1 [Compound 12, 2-(4-((4-Acetylphenoxy)methyl)-1H-1,2,3-triazol-1-Yl)-N-(4-fluorobenzyl)acetamide]",41,100,165 to 166,,,
